In publication PMC12480751, “A quantitative high-throughput screening pipeline to identify small molecule inhibitors of Chikungunya nsP2 protease” (Scientific Reports, 2025):

Key:
CHIKV = system: CHIKV; parameters: method as in PMID 30018455; details: cited from earlier work
CHIKV nsP2pro [1] = target: T1, CHIKV nsP2pro (Chikungunya virus, UniProt Q8JUX6); experiment: FRET-based nsP2pro proteolytic assay with peptide 2 (nsp3/4 site), 1,536-well qHTS; type: biochemical
nsP2 protease = target: T2, nsP2 protease (Chikungunya virus, UniProt Q8JUX6); experiment: cell-based; type: cell-based
T2 construct: expressed in transfected cells; host or cells: HEK293T (the results text says HEK293), transient co-transfection in pcDNA3.1(+)
T2 sequence (Q8JUX6 755-1333 limits assumed): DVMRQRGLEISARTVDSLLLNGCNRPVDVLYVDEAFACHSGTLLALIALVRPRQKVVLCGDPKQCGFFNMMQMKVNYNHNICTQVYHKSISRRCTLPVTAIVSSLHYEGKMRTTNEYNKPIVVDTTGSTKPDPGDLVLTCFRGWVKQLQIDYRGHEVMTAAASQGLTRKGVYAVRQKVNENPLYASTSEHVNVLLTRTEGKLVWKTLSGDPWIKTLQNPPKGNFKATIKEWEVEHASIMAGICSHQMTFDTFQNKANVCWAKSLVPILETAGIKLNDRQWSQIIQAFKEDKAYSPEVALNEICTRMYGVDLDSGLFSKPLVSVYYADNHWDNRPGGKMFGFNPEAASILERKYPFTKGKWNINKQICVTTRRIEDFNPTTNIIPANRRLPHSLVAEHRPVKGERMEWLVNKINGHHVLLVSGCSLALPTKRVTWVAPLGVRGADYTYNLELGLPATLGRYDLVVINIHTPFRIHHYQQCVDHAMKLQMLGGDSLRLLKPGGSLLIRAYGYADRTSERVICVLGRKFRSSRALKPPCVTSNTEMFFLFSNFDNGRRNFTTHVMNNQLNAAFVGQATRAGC

CHIKV nsP2pro [2] = target: T1, CHIKV nsP2pro; experiment: FRET-based nsP2pro proteolytic assay with peptide 3 (nsp2/3 site); type: biochemical; details: nsP2pro and peptide 3; read-out: IC50, inhibition of cleavage of nsp2/3 peptide by nsp2pro
Method: (§1) To gain further insight on their therapeutic potential, we investigated whether confirmed hits inhibit proteolytic activity in the context of full-length nsP2 protein rather than isolated protease domain[13]. To test the set of confirmed inhibitors, we chose peptide 2 substrate and full-length enzyme concentrations of 1 μM and 150 nM, respectively. Compound activity correlated well between nsP2pro and full-length enzyme (Fig. 2A). Additionally, we tested whether hits inhibit proteolysis of the nsP2/3 site.
(§2) Two point five μM peptide 2 substrate and 150 nM nsP2pro were selected to run the assay into 1536-well plate format. ZnAc was used as a positive control in the assay (50 µM). […] For primary screens, compounds were tested at 7 concentrations, 1:3 dilution points ranging from 25 µM to 34 nM. […] Four µL nsP2pro enzyme mix in assay buffer (10 mM Tris⋅HCl pH 8.0 with 0.01% Tween 20) was dispensed into the plate using a BioRAPTR FRD liquid dispenser (Beckman Coulter). The plate was incubated at RT (protected from light) for 15 min before addition of 4 µL substrate in assay buffer. After 1 h, plates were immediately read on a ViewLux high-throughput CCD imager (Exposure = 10 s, Gain = High, Speed = Slow, Binning = 2X). The above assay was also incorporated in the NCATS HTS facility, which allowed for robotic liquid and compound dispensing, microplate handling, and fluorescence reading. […]

full-length nsP2 = target: T3, full-length nsP2 (Chikungunya virus, UniProt Q8JUX6, C1333A); experiment: FRET-based full-length nsP2 proteolytic assay with peptide 2; type: biochemical; details: full-length nsP2 and peptide 2; read-out: IC50, inhibition of nsp3/4 cleavage by full-length enzyme
T3 sequence (Q8JUX6 536-1333 C1333A): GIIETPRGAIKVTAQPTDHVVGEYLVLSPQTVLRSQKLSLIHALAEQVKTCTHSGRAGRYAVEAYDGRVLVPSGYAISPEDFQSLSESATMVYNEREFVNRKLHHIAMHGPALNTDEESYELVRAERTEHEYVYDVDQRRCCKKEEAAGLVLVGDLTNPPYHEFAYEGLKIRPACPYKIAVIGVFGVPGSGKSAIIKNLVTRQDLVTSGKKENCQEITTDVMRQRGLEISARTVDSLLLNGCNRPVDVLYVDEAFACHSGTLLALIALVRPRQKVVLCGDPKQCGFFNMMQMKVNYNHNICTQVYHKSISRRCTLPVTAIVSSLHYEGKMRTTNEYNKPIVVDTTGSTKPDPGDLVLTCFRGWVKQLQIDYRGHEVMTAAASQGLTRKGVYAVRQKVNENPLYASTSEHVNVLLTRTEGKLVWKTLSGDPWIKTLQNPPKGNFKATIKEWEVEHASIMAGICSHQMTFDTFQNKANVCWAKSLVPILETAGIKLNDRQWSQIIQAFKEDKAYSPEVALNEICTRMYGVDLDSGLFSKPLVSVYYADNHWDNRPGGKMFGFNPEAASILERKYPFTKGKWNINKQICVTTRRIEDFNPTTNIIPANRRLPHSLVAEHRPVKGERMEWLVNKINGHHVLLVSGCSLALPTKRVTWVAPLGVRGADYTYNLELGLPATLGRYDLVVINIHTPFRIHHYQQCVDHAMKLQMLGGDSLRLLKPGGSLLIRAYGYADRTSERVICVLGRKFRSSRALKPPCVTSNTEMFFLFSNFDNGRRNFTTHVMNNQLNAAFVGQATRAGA
Method: as §1
All reactions were incubated at room temperature (RT).
as §2, with “The plate was incubated at RT (protected from light) for 15 min before addition of 4 µL substrate in assay buffer.” left out

SNB19 cells = experiment: CellTiter-Glo cell viability assay of SNB19 cells; type: cell-based, human; details: 48 h
Method: Cells were harvested in growth media and dispensed (5 µL /1,000 cells/well) onto 1536-well white plates (Aurora #EWB041000A) using a Multidrop Combi. Control and test compounds were added (25 nL) using an Echo 650 liquid handler. Plates were incubated for 48 h at 37 °C and 5% CO2 and then equilibrated to room temperature prior to addition of 4 µL /well of CellTiter-Glo (Promega) using a Multidrop Combi. Plates were subsequently incubated for 15 min at room temperature and centrifuged for 1 min at 1000 rpm. Luminescence was read on a ViewLux imager equipped with clear filters.

| SMILES | concentrations effective in preventing CHIKV viral infection (CHIKV) | IC50 (CHIKV nsP2pro [1]; nsP2pro and peptide 2, read-out: IC50, inhibition of nsp3/4 cleavage by nsP2pro) | effect on Nluc reporter signal in cellular nsp2 proteolytic assay (nsP2 protease) | IC50 (CHIKV nsP2pro [2]) | IC50 (full-length nsP2) | CC50 (SNB19 cells) | Enzymatic % Efficacy (CHIKV nsP2pro [1]; nsP2pro biochemical assay, 13 cell-active hits) | IC50 (CHIKV nsP2pro [1]; nsP2pro biochemical assay, 13 cell-active hits, read-out: Enzymatic IC50) | Cell-based % Efficacy (nsP2 protease) | AC50 (nsP2 protease; read-out: Cell-based AC50) |
| --- | --- | --- | --- | --- | --- | --- | --- | --- | --- | --- |
| CC(=O)[O-].CC(=O)[O-].[Zn+2] [ZnAc, Zinc acetate] | higher than 60 µM | 0.192 ± 0.012 µM | did not increase Nluc reporter signal | 0.685 ± 0.077 µM | 0.137 ± 0.011 µM |  |  |  |  |  |
| CC(C)n1nc(C#Cc2ccccc2)c2c(N)ncnc21 [SPP 86] |  |  |  |  |  | 16.4 µM | -114.8% | 8 µM | 146.3% | 18.3 µM |
